The values that follow come from patent EP4620955A1, “MC4R ANTAGONIST COMPOUND, PHARMACEUTICAL COMPOSITION AND PHARMACEUTICAL USE THEREOF” (Changchun Genescience Pharmaceutical Co., Ltd., priority 2022, dated 2024).

For orientation: IC50 means the concentration needed to halve the response being measured. A lower IC50 goes with greater potency in that assay. For orientation: AUC means the area under the concentration-time curve, a measure of exposure. High values mean high exposure, low ones low exposure. For orientation: Cmax means the peak of the concentration-time curve. One may read the half-life as the time needed for the level to fall by half in the phase considered. Read a high half-life as slow decline.

The target in data set [1] is T1, MC4R (Homo sapiens, UniProt P32245).
T1 construct: expressed in transfected cells; host or cells: flipin-293-MC4 (Flp-In 293 host, hygromycin selection)
The experiment in a line: Assay of MC4R antagonist activity in cells in vitro (cAMP assay, Melanotan I stimulation). The format is cell-based. Particulars: flipin-293-MC4 cell line, Melanotan I as agonist. As to the method: Test Example 1: Assay of MC4R antagonist activity in cells in vitro
a. Experimental consumables:
b. Experimental steps • ✔ Cell line: flipin-293-MC4 • ✔ Cell culture medium: DMEM, 10% fetal bovine serum, 1 × PS, 200 µg/mL hygromycin • ✔ Experimental buffer: HBSS, 20 mM HEPES, 0.1% BSA, 500 µM IBMX • ✔ Positive compound: ML00253764 c. Antagonist detection • 1. Digested cells were suspended in the experimental buffer, and then inoculated into the 384-well cell culture plate. • 2. The to-be-detected compound was added to the cell plate, and incubated at 37°C for 10 min. • 3. Melanotan I was added to the cell plate, and incubated at 37°C for 30 min. • 4. Two detection reagents EU cAMP tracer and ulight anti camp were thawed and diluted with a lysis solution in the kit. • 5. The diluted detection reagents were added to the cell plate and incubated at room temperature for 1 h. • 6. Reading was carried out by Envision. (Excitation light: 340 nm, emission light: 615 nm and 665 nm) d. Data analysis • 1. %Inhibition calculation: %Inhibition = (Signalcmpd−SignalAve_VC)/(SignalAve_PC−SignalAve_VC) × 100. [formula] • Signalcmpd: compound signal value; • SignalAve_VC: negative control signal value; • SignalAve_PC: positive control signal value; • %inhibition: inhibition percentage. • 2. Calculation of IC50 of the compound using the nonlinear fitting equation in GraphPad: Y = Bottom + (Top−Bottom)/(1+10^(∧)((LogIC50−X)×HillSlope)) [formula] X: logarithmic value of the concentration of the compound; Y: inhibition percentage

Data set [2] can be described thus: Pharmacokinetic study on the tested compound in SD male rats. The format is in vivo. Particulars: IV 1 mpk/PO 2 mpk; for AUC / Cmax / clearance / half-life: Sprague-Dawley (SD), rat, plasma. As to the method:
On the day of administration, the tested compound was prepared with 5% DMSO + 5% Solutol + 90% Saline as a solvent into a solution for administration for use.
The solution for administration was administered to an intravenous injection IV group at a dose of 1 mg/kg in a concentration of 0.2 mg/mL. The solution for administration was administered to an oral gavage PO group at a dose of 2 mg/kg in a concentration of 0.2 mg/mL. The animals in the PO group were required to fast overnight in advance, drink water freely, and be fed 4 hours after administration. The IV group was not required to fast.
The animals were weighed before administration. On the day of administration, the solution was IV/PO-administered once in an administration amount calculated based on the weight. In the IV group, blood was collected from veins at 0.083 h, 0.25 h, 0.5 h, 1.0 h, 2.0 h, 4.0 h, 8.0 h, and 24 h after administration. In the PO group, blood was collected from veins at 0.25 h, 0.5 h, 1.0 h, 2.0 h, 4.0 h, 6.0 h, 8.0 h, and 24 h after administration. The amount of blood collected was about 0.20 mL. K2-EDTA was used in blood collection tubes as an anticoagulant. The collected blood sample was centrifuged (centrifugation conditions: 6800 g, 6 min, 2°C to 8°C) within 1 h to obtain plasma. The to-be-tested sample was stored in a refrigerator at -80°C before analysis.
The concentration of the tested compound in the plasma of the SD male rats was detected by the validated LC-MS/MS method.

SMILES strings stand for the structures.

T1 sequence (P32245 whole entry): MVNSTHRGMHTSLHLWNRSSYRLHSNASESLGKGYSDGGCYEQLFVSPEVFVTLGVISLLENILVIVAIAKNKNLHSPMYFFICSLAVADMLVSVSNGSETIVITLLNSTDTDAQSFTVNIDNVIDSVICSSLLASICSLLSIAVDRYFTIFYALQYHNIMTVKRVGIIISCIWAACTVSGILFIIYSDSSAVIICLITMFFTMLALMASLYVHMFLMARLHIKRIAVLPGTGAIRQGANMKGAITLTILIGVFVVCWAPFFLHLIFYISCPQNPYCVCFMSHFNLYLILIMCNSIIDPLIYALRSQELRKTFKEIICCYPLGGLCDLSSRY

For `COc1cc([C@@H](C)C(=O)N2CC[C@H](Nc3ccc(-c4ncccn4)c(C)n3)C2)c(F)cn1` [Compound 001-1, (R)-2-(5-fluoro-2-methoxypyridine-4-yl)-1-((S)-3-((6-methyl-5-(pyrimidine-2-yl)pyridine-2-yl)amino)pyrrolidine-1-yl)propan-1-one], the half-maximal inhibitory concentration (IC50) in data set [1] is 3.95 nM. In data set [2], this molecule returned an F of 86.8%, an area under the curve (AUC) of 442 ng·h/mL, a Cmax of 338 ng/mL and a clearance of 65.3 mL/min/kg. In addition, the half-life in data set [2] was 42.6 min.

In turn, `COc1cc([C@@H](C)C(=O)N2C[C@H](C)[C@H](Nc3ccc(-c4ncccn4)c(C)n3)C2)c(F)cn1` [Compound 051-1, (R)-2-(5-fluoro-2-methoxypyridine-4-yl)-1-((3 S,4S)-3-methyl-4-(6-methyl-5-(pyrimidine-2-yl)pyridine-2-yl-amino)pyrrolidine-1-yl)propane-1-one] registered an IC50 in data set [1] of 2.96 nM. In data set [2], this molecule yielded an F of 52.7%, an exposure (AUC) of 317 ng·h/mL, a Cmax of 329 ng/mL and a clearance of 55.2 mL/min/kg. The molecule further gave a half-life in data set [2] of 15 min.

The molecule `COc1cc([C@@H](C)C(=O)N2C[C@@H](Nc3ccc(-c4ncccn4)c(C)n3)C3(CC3)C2)c(F)cn1` [Compound 056-1, (2R)-2-(5-fluoro-2-methoxypyridine-4-yl)-1-[(7S)-7-{[6-methyl-5-(pyrimidine-2-yl)pyridine-2-yl]amino}-5-azaspiro[2.4]heptane-5-yl]propan-1-one] came in with an IC50 in data set [1] of 4.23 nM. For the same molecule, in data set [2], the F came out at 61.5%, the AUC was 566 ng·h/mL, the highest level (Cmax) was 380 ng/mL and the clearance came to 35.8 mL/min/kg. In data set [2], the half-life was 53.4 min.

With `COc1cc([C@@H](C)C(=O)N2C[C@H](C)[C@H](Nc3ccc(-c4ncccn4)c(C)n3)C2)c(Cl)cn1` [Compound 112, (R)-2-(5-chloro-2-methoxypyridine-4-yl)-1-((3 S,4S)-3-methyl-4-(6-methyl-5-(pyrimidine-2-yl)pyridine-2-yl-amino)pyrrolidine-1-yl)propane-1-one], the IC50 in data set [1] came to 2.3 nM. Also, in data set [2], the F came to 33.8%, the AUC came out at 179 ng·h/mL, the maximum concentration (Cmax) is 157 ng/mL and the clearance is 62.5 mL/min/kg. In addition, the half-life in data set [2] was 15 min.

`COc1cc([C@@H](C)C(=O)N2C[C@@H](Nc3ccc(-c4cc(C#N)ccn4)c(C)n3)C3(CC3)C2)c(Cl)cn1` [Compound 168, 6'-(((S)-5-((R)-2-(5-chloro-2-methoxypyridine-4-yl)propionyl)-5-azaspiro[2.4]hept-7-yl)amino)-2'-methyl-[2,3'-bipyridyl]-4-carbonitrile]: the half-maximal inhibitory concentration (IC50) in data set [1] worked out at 3.68 nM.

In the case of `COc1cc([C@@H](C)C(=O)N2C[C@@H](Nc3ccc(-c4cn(C)c(C(C)(C)O)n4)c(C)n3)C3(CC3)C2)c(F)cn1` [Compound 181, (R)-2-(5-fluoro-2-methoxypyridine-4-yl)-1-((S)-7-((5-(2-(2-hydroxypropan-2-yl)-1-methyl-1H-imidazol-4-yl)-6-methylpyridine-2-yl)amino)-5-azaspiro[2.4]hept-5-yl)propan-1-one], the half-inhibitory concentration (IC50) in data set [1] stood at 1.59 nM. Compared with the last molecule, the IC50 is about 2.3-fold lower.

On to `COc1cc([C@@H](C)C(=O)N2C[C@@H](Nc3ccc(-c4cn(C)c(C(C)(C)O)n4)c(C)n3)C3(CC3)C2)c(Cl)cn1` [Compound 182, (R)-2-(5-chloro-2-methoxypyridine-4-yl)-1-((S)-7-((5-(2-(2-hydroxypropan-2-yl)-1-methyl-1H-imidazol-4-yl)-6-methylpyridine-2-yl)amino)-5-azaspiro[2.4]hept-5-yl)propan-1-one], for which the IC50 in data set [1] was 0.86 nM.

`COc1cc([C@@H](C)C(=O)N2C[C@@H](Nc3ccc(-c4cn(C)c(OC)n4)c(C)n3)C3(CC3)C2)c(Cl)cn1` [Compound 184, (R)-2-(5-chloro-2-methoxypyridine-4-yl)-1-((S)-7-((5-(2-methoxy-1-methyl-1H-imidazol-4-yl)-6-methylpyridine-2-yl)amino)-5-azaspiro[2.4]hept-5-yl)propan-1-one]: the half-inhibitory concentration (IC50) in data set [1] was determined as 1.49 nM.

`COc1cc([C@@H](C)C(=O)N2C[C@@H](Nc3ccc(-c4cn(C)c(OC(F)F)n4)c(C)n3)C3(CC3)C2)c(Cl)cn1` [Compound 186, (R)-2-(5-chloro-2-methoxypyridine-4-yl)-1-((S)-7-((5-(2-(difluoromethoxy)-1-methyl-1H-imidazol-4-yl)-6-methylpyridine-2-yl)amino)-5-azaspiro[2.4]hept-5-yl)propan-1-one] came in with an IC50 in data set [1] of 0.55 nM.

Molecule `COc1cc([C@@H](C)C(=O)N2C[C@@H](Nc3ccc(-c4cn5c(n4)CCC5)c(C)n3)C3(CC3)C2)c(F)cn1` [Compound 187, (R)-1-((S)-7-((5-(6,7-dihydro-5H-pyrrolo[1,2-a]imidazol-2-yl)-6-methylpyridine-2-yl)amino)-5-azaspiro[2.4]hept-5-yl)-2-(S-fluoro-2-methoxypyridine-4-yl)propan-1-one] yielded a concentration for half-maximal inhibition (IC50) in data set [1] of 3.42 nM.

In data set [1], `COc1cc([C@@H](C)C(=O)N2C[C@@H](Nc3ccc(-c4cn5c(n4)CCC5)c(C)n3)C3(CC3)C2)c(Cl)cn1` [Compound 188, (R)-2-(5-chloro-2-methoxypyridine-4-yl)-1-((S)-7-((5-(6,7-dihydro-5H-pyrrolo[1,2-a]imidazol-2-yl)-6-methylpyridine-2-yl)amino)-5-azaspiro[2.4]hept-5-yl)propan-1-one] yielded an IC50 of 2.11 nM.

On to `COc1cc([C@@H](C)C(=O)N2C[C@@H](Nc3ccc(-c4cn5c(n4)C(F)(F)CC5)c(C)n3)C3(CC3)C2)c(F)cn1` [Compound 189, (R)-1-((S)-7-((5-(7,7-difluoro-6,7-dihydro-5H-pyrrolo[1,2-a]imidazol-2-yl)-6-methylpyridine-2-yl)amino)-5-azaspiro[2.4]hept-5-yl)-2-(5-fluoro-2-methoxypyridine-4-yl)propan-1-one], for which, in data set [1], the half-maximal inhibitory concentration (IC50) came out at 2.25 nM.

In data set [1], `COc1cc([C@@H](C)C(=O)N2C[C@@H](Nc3ccc(-c4cn5c(n4)C(F)(F)CC5)c(C)n3)C3(CC3)C2)c(Cl)cn1` [Compound 190, (R)-2-(5-chloro-2-methoxypyridine-4-yl)-1-((S)-7-((5-(7,7-difluoro-6,7-dihydro-5H-pyrrolo[1,2-a]imidazol-2-yl)-6-methylpyridine-2-yl)amino)-5-azaspiro[2.4]hept-5-yl)propan-1-one] displayed an IC50 of 1.1 nM.

`COc1cc([C@@H](C)C(=O)N2CC[C@H](Nc3ccc(-c4cn(C)nn4)c(C)n3)C2)c(Cl)cn1` [Compound 195, (R)-2-(5-chloro-2-methoxypyridine-4-yl)-1-((S)-3-((6-methyl-5-(1-methyl-1H-1,2,3-triazol-4-yl)pyridine-2-yl)amino)pyrrolidine-1-yl)propan-1-one]: the 50% inhibitory concentration (IC50) in data set [1] came out at 0.99 nM.

In data set [1], `COc1cc([C@@H](C)C(=O)N2C[C@@H](Nc3ccc(-c4cn(C(F)F)nn4)c(C)n3)C3(CC3)C2)c(Cl)cn1` [Compound 196, (R)-2-(5-chloro-2-methoxypyridine-4-yl)-1-((S)-7-((S-(1-(difluoromethyl)-1H-1,2,3-triazol-4-yl)-6-methylpyridine-2-yl)amino)-5-azaspiro[2.4]hept-5-yl)propan-1-one] came in with an IC50 of 4.88 nM.

In turn, `COc1cc([C@@H](C)C(=O)N2C[C@@H](C)[C@H](Nc3ccc(-c4ncccn4)c(C)n3)C2)c(Cl)cn1` [Compound 198, (R)-2-(5-chloro-2-methoxypyridine-4-yl)-1-((3R,4S)-3-methyl-4-((6-methyl-5-(pyrimidine-2-yl)pyridine-2-yl)amino)pyrrolidine-1-yl)propan-1-one] returned an IC50 in data set [1] of 4.9 nM.

As for `COc1cc([C@@H](C)C(=O)N2C[C@@H](Nc3ccc(-c4ncccn4)c(C)n3)C(C)(C)C2)c(Cl)cn1` [Compound 199, (R)-2-(5-chloro-2-methoxypyridine-4-yl)-1-((S)-3,3-dimethyl-4-((6-methyl-5-(pyrimidine-2-yl)pyridine-2-yl)amino)pyrrolidine-1-yl)propan-1-one], the half-inhibitory concentration (IC50) in data set [1] worked out at 366 nM.
